Assay results from patent publication US10143668B2, “Hydroxy-substituted amino and ammonium derivatives and their medical use” (GRI BIO, INC., priority 2011, dated 2018).
Read-outs that look alike come from different tables or passages of the source.

Columns and labels:
[1] = tested on: Akt phosphorylation on Ser473; experiment: Inhibition of activation of Akt kinase (phospho-Akt Ser473 assay in RBL-2H3 cells); type: cell-based, rat; conditions: IgE and antigen for 15 min
Text: The mast cell degranulation assay using the RBL-2H3 cell line (see example 5) was also used to determine the status of the PI3K/Akt axis. Activation of PI3K leads to production of PIP3 on the cytosolic side of the lipid bilayer. Akt is recruited to the PIP3 domain and subsequently activated by phosphorylation on residues Ser473 and Thr308. (Franke et al., Cell 81:727-736, (1995)). Once recruited to the membrane, it is phosphorylated and activated by other kinases (Hemmings, Science 275:628-630 (1997); Hemmings, Science 276:534 (1997); Downward, Science 279:673-674 (1998); Alessi et al., EMBO J. 15:6541-6551 (1996)). Western blotting of the phosphorylated Ser473 residue on Akt (phospho-Akt Ser473) is widely used to assess the level of activation of the PI3K/Akt axis.
All buffers and solutions used for the phosphor-Akt Ser473 assay were from Meso Scale Discovery. Tris Lysis Buffer consisted of 150 mM NaCl, 20 mM Tris, pH 7.5, 1 mM EDTA, 1 mM EGTA and 1% Triton-X-100. Complete Tris Lysis Buffer was prepared prior to use by addition of protease inhibitor, phosphatase inhibitors and PMSF. […] Read Buffer T was used according to manufacturer's instructions. […]
Protein assay: protein concentration was determined using the BCA (bicinchoninic acid) Protein Assay kit according to the manufacturer's instructions. […] Plates were cooled to room temperature for 5 min and absorbance at 562 nm was measured in a multi-mode plate reader. Protein concentrations were calculated using FlexStation 3 software (SoftMax Pro version 5.3). Protein concentration of lysates was determined from a standard curve (BSA) using a linear curve fit.
Phosphoprotein assay: protein phosphorylation was determined using the MULTI-SPOT® Assay System (Mesa Scale Discovery), providing simultaneous detection of phosphorylated and total proteins. […] The optimal amount of protein was determined at 5 μg lysate per well for ERK½ and 10 μg/well for phospho-Akt Ser473. […] After a final four washes with Tris Wash Buffer 150 μl/well, Read Buffer T was added, and plates read on a SECTOR Imager 6000 plate reader. […]

[2] = tested on: collagen type II-induced arthritis (CIA) in mice
[3] = therapeutic regimen, 100 mg/kg orally twice daily for 20 days, vs vehicle

CCCCCCCCCCCCCC[N+](C)(C)CC(=O)N(C)C[C@H](O)[C@@H](O)[C@H](O)[C@H](O)CO [Compound 1a, N-(2-(Dimethyl(tetradecyl)ammonio)acetyl)-N-methyl-D-glucamine chloride]
Level of phospho-Akt Ser473 ([1]; 1 μM): 81.8 ± 42.5 % positive control | Level of phospho-Akt Ser473 ([1]; 5 μM): 22.6 ± 15.7 % positive control | Level of phospho-Akt Ser473 ([1]; 25 μM): 6.8 ± 1.8 % positive control | cumulative arthritis score ([2]; prophylactic regimen): significantly reduced | duration of the disease ([2]; prophylactic regimen): significantly reduced | arthritic score ([2]; prophylactic, 25 mg/kg orally twice daily, from day 34 to day 47, vs vehicle): significantly reduced | paw thickness ([2]; prophylactic, 25 mg/kg, from day 34 after immunization, vs vehicle): significant reduction | arthritic score ([2]; prophylactic, 100 mg/kg orally twice daily, from day 40 to day 47, vs vehicle): significantly reduced | arthritis score [2, 3]: reduced the arthritis score and cumulative arthritis score compared to vehicle treated mice (FIG. 5C), but without reaching statistical significance | cumulative arthritis score [2, 3]: reduced the arthritis score and cumulative arthritis score compared to vehicle treated mice (FIG. 5C), but without reaching statistical significance | duration of disease ([2]; therapeutic regimen, 100 mg/kg, vs vehicle): trend to a reduction
